The values that follow come from US20110256291A1, “CYCLIC LIPOPEPTIDES FOR USE AS TASTE MODULATORS” (NUTRINOVA NUTRITION SPECIAL TIES & FOOD INGREDIENT GMBH, priority 2008, published 2011).

The target in this experiment is T1, human T1R2/T1R3 taste receptor (Homo sapiens, UniProt Q7RTX0+Q8TE23).
T1 construct: the cDNA for the receptors ht1R2 and ht1R3 and the cDNA for the blasticidin S deaminase gene have been cloned; expressed in transfected cells; host or cells: HEK293 cell line stably expressing mouse G-alpha-15, stably transfected with the tricistronic vector pTrix-Eb-R2R3 and selected with blasticidin
T1 sequence (Q8TE23 20-839): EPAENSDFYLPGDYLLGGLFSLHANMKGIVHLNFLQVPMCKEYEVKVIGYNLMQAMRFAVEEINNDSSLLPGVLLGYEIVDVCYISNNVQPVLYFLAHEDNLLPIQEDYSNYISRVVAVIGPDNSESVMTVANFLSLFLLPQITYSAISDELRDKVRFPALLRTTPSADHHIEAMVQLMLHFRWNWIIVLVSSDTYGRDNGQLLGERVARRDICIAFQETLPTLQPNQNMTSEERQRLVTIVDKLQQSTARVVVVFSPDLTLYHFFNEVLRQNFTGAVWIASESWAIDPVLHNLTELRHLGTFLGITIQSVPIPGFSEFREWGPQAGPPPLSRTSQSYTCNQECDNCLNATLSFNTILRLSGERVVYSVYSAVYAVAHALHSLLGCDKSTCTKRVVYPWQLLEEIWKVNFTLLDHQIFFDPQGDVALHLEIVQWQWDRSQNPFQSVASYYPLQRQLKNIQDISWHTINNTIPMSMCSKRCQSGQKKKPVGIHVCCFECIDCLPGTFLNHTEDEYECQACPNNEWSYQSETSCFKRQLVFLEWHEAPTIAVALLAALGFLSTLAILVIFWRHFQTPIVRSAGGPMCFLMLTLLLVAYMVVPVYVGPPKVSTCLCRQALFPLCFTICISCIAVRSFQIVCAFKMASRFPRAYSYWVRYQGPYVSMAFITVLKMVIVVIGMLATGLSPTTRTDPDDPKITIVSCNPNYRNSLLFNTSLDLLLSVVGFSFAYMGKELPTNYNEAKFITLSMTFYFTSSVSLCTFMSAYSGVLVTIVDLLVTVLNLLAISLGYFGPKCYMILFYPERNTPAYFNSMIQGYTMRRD
T1 sequence (Q7RTX0 21-852): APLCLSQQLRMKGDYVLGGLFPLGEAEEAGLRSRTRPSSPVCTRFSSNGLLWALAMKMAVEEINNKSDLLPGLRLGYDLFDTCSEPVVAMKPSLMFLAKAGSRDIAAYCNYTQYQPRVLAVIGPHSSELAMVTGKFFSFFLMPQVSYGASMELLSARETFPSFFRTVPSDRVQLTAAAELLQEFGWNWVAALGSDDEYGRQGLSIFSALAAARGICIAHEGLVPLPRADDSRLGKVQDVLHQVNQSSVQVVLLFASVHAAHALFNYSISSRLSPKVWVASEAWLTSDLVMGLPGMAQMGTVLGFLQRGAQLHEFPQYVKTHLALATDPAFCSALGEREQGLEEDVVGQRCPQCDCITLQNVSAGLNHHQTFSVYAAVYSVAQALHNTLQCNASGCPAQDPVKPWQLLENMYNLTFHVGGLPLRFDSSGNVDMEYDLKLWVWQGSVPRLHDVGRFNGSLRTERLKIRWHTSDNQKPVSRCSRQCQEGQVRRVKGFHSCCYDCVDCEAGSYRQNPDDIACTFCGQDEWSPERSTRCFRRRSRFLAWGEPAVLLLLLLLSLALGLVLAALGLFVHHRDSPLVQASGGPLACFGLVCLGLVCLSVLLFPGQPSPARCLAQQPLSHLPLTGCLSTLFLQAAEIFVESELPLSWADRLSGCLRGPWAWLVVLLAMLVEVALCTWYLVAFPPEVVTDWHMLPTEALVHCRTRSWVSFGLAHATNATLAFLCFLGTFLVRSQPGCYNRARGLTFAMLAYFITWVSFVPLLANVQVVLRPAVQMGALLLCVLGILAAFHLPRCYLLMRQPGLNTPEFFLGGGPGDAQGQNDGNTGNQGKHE
The experiment can be described thus: calcium dependent cell based assay (Fluo-4 AM) in HEK293 cells stably expressing G-alpha-15, human T1R2 and human T1R3. The settings on record: 30 mM fructose (5.4 g/l), pre-examinations. The procedure:
Fluo-4 AM assay with stable HEK293 cells—Stable cells are maintained in DMEM high-glucose medium (Invitrogen) supplemented with 10% fetal bovine serum (Biochrom) and 4 mM L-glutamine (Invitrogen). Cells for calcium imaging are maintained in DMEM low-glucose medium supplemented with 10% FBS and 1× Glutamax-1 (Invitrogen) for 48 hours before seeding. These stable cells are trypsinised after 48 hours (either with Trypsin-EDTA, Accutase or TrypLE) and seeded onto poly-D-lysine coated 96-well assay plates (Corning) at a density of 45,000 cells/well in DMEM low-glucose medium supplemented with 10% FBS and 1× Glutamax-1.
After 24 hours, the cells were loaded in 100 μl medium with additional 100 μl of 4 μM Fluo-4 (calcium sensing dye, 2 μM end concentration; Molecular Probes) in Krebs-HEPES (KH)-buffer for 1 hour. The loading reagent is then replaced by 200 μl KH-buffer per well. […]
The dye-loaded stable cells in plates were placed into a fluorescence microtiter plate reader to monitor fluorescence (excitation 488 nm, emission 520 nm) change after the addition of 50 μl KH-buffer supplemented with 5× tastants. […]
Calcium mobilization was quantified as the change of peak fluorescence (ΔF) over the baseline level (F0). Data were expressed as the mean S.E. of the (ΔF/F0) value of replicated independent samples. The analysis was done with the software of the microtiter plate reader. […]

For the compound `O=C(CO)[C@@H](O)[C@H](O)[C@H](O)CO` [fructose], the “activation of the sweet taste receptors” value was “barely activating”.
